Assay results: US6737383B1, “Herbicidal oxadiazolidines” (priority 1999, dated 2004)

Tests used:
sandbur = experiment: Test D sandbur; assay type: in vivo, Cenchrus echinatus; settings: Preemergence, 0 to 100 scale
Outline: (§1)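 Seeds were sown in greenhouse pots, one species per pot or compartment. Compounds were in a non-phytotoxic solvent mixture with surfactant; preemergence applications went on the sandy loam surface within one day of planting. Injury was rated visually after 14 to 21 days, 0 (none) to 100 (complete control).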

guineagrass = experiment: Test D guineagrass; assay type: in vivo, Panicum maximum; settings: Preemergence, 0 to 100 scale
Outline: as §1

itchgrass = experiment: Test D itchgrass; assay type: in vivo, Rottboellia exaltata; settings: Preemergence, 0 to 100 scale
Outline: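 Scoring used a 0–100 visual injury scale, with 0 meaning no effect and 100 complete control, assessed 14–21 days after application alongside untreated pots. Preemergence treatments went onto sandy loam surfaces of separately potted seeds within a day of sowing.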

Johnson grass = experiment: Test D Johnson grass; assay type: in vivo, Sorghum halepense; settings: Preemergence, 0 to 100 scale
From the text: (§2) Seeds, tubers, or plant parts of Alexandergrass (Brachiaria plantaginea), bermuda-grass (Cynodon dactylon), common pursiane (Portulaca oleracea), common ragweed (Ambrosia elatior), common groundsel (Senecio vulgaris), dallisgrass (Paspalum dilatatum), goosegrass (Eleusine indica), guineagrass (Panicum maximum), itchgrass (Rottboellia exaltata), Johnson grass (Sorghum halepense), large crabgrass (Digitaria sanguinalis), pitted morningglory (Ipomoea lacunosa), purple nutsedge (Cyperus rotundus), sandbur (Cenchrus echinatus), sourgrass (Trichachne insularis), Spanishneedles (Bidens bipinnata), surinam grass (Brachiaria decumbens) and tall mallow (Malva sylvestris) were planted into greenhouse pots of flats containing greenhouse planting medium. Plant species were grown in separate pots or individual compartments. Preemergence applications were made within one day of planting the seed or plant part.
(§3) Test chemicals were formulated in a non-phytotoxic solvent mixture which included a surfactant and applied preemergence to the surface of the pot containing seeds in a sandy loam soil. Untreated control pots and treated pots were placed in the greenhouse for growth and visually evaluated for injury 14 to 21 days after herbicide application. Plant response ratings, summarized in Table C, are based on a 0 to 100 scale where 0 is no injury and 100 is complete control. A dash (−) response means no test result.

purple nutsedge = experiment: Test D purple nutsedge; assay type: in vivo, Cyperus rotundus; settings: Preemergence, 0 to 100 scale
Outline: as §1

common pursiane = experiment: Test D common purslane; assay type: in vivo, Portulaca oleracea
From the text: as §2, §3

pitted morningglory = experiment: Test D pitted morningglory; assay type: in vivo, Ipomoea lacunosa; settings: Preemergence, 0 to 100 scale
Outline: as §1

Spanishneedles = experiment: Test D Spanishneedles; assay type: in vivo, Bidens bipinnata; settings: Preemergence, 0 to 100 scale
From the text: as §2, §3

tall mallow = experiment: Test D tall mallow; assay type: in vivo, Malva sylvestris; settings: Preemergence, 0 to 100 scale
Outline: as §1

bermuda-grass = experiment: Test D bermudagrass; assay type: in vivo, Cynodon dactylon; settings: Preemergence, 0 to 100 scale
Outline: as §1

common groundsel = experiment: Test D common groundsel; assay type: in vivo, Senecio vulgaris; settings: Preemergence, 0 to 100 scale
Outline: as §1

Alexandergrass = experiment: Test D Alexandergrass; assay type: in vivo, Brachiaria plantaginea; settings: Preemergence, 0 to 100 scale
From the text: as §2, §3

[1] = Rate 32 g/ha, 0 no injury, 100 complete control
[2] = Rate 64 g/ha, 0 no injury, 100 complete control
[3] = Rate 125 g/ha, 0 no injury, 100 complete control

CCc1ccccc1-n1c(=O)on(C(=O)N(c2ccc(F)cc2)C(C)C)c1=O [Compound 34]
40: Plant response rating, Sandbur (sandbur; Rate 250 g/ha)
30: Sandbur plant response rating (sandbur; [3]) | Plant response rating, Guineagrass (guineagrass; [1]) | Plant response rating Johnsongrass (Johnson grass; Rate 250 g/ha) | Plant response rating, Alexandergrass (Alexandergrass; [3])
20: Plant response rating, Itchgrass (itchgrass; Rate 250 g/ha) | Plant response rating Johnsongrass (Johnson grass; [3]) | Plant response rating, Alexandergrass (Alexandergrass; [2])
60: Plant response rating, Alexandergrass (Alexandergrass; Rate 250 g/ha)
0: Plant response rating, Sandbur (sandbur; [1]) | Sandbur plant response rating (sandbur; [2]) | Plant response rating, Itchgrass (itchgrass; [1]) | Plant response rating, Itchgrass (itchgrass; [2]) | Plant response rating, Itchgrass (itchgrass; [3]) | Plant response rating Johnsongrass (Johnson grass; [1]) | Plant response rating Johnsongrass (Johnson grass; [2]) | Plant response rating, Purple nutsedge (purple nutsedge; [1]) | Purple nutsedge plant response rating (purple nutsedge; [2]) | Purple nutsedge plant response rating (purple nutsedge; [3]) | Plant response rating, Purple nutsedge (purple nutsedge; Rate 250 g/ha) | Plant response rating, C. purslane (common pursiane; Rate 32 g/ha; Preemergence; 0 to 100 scale, 0 no injury, 100 complete control) | Plant response rating, C. purslane (common pursiane; Rate 125 g/ha, Preemergence; 0 to 100 scale, 0 no injury, 100 complete control) | Plant response rating, C. purslane (common pursiane; Rate 250 g/ha; Preemergence; 0 to 100 scale) | Plant response rating, P. morninglory (pitted morningglory; [1]) | Plant response rating, P. morninglory (pitted morningglory; [2]) | Plant response rating, P. morninglory (pitted morningglory; [3]) | Plant response rating, P. morninglory (pitted morningglory; Rate 250 g/ha) | Plant response rating, Spanishneedles (Spanishneedles; [1]) | Spanishneedles plant response rating (Spanishneedles; [2]) | Spanishneedles plant response rating (Spanishneedles; [3]) | Plant response rating, Tall Mallow (tall mallow; [1]) | Tall Mallow plant response rating (tall mallow; [2]) | Tall Mallow plant response rating (tall mallow; [3]) | Plant response rating, Tall Mallow (tall mallow; Rate 250 g/ha) | Plant response rating, Com. groundsel (common groundsel; [1]) | Plant response rating, Com. groundsel (common groundsel; [2]) | Plant response rating, Com. groundsel (common groundsel; [3]) | Plant response rating, Com. groundsel (common groundsel; Rate 250 g/ha) | Plant response rating, Alexandergrass (Alexandergrass; [1])
100: Plant response rating, Bermudagrass (bermuda-grass; [3]) | Plant response rating, Bermudagrass (bermuda-grass; Rate 250 g/ha)
98: Plant response rating, Guineagrass (guineagrass; Rate 250 g/ha) | Plant response rating, Bermudagrass (bermuda-grass; [2])
80: Plant response rating, Guineagrass (guineagrass; [2])
85: Plant response rating, Guineagrass (guineagrass; [3]) | Plant response rating, Bermudagrass (bermuda-grass; [1])

Cc1ccccc1-n1c(=O)on(C(=O)N(c2ccccc2)C(C)C)c1=O [Compound 36]
100: Plant response rating, Sandbur (sandbur; Rate 500 g/ha) | Plant response rating, Guineagrass (guineagrass; Rate 500 g/ha) | Plant response rating, Bermudagrass (bermuda-grass; Rate 500 g/ha) | Plant response rating, Com. groundsel (common groundsel; Rate 500 g/ha)
0: Plant response rating Johnsongrass (Johnson grass; Rate 500 g/ha) | Plant response rating, Purple nutsedge (purple nutsedge; Rate 500 g/ha) | Plant response rating, C. purslane (common pursiane; Rate 500 g/ha; Preemergence; 0 to 100 scale) | Plant response rating, P. morninglory (pitted morningglory; Rate 500 g/ha) | Plant response rating, Tall Mallow (tall mallow; Rate 500 g/ha)
80: Plant response rating, Itchgrass (itchgrass; Rate 500 g/ha)
10: Plant response rating, C. purslane (common pursiane; Rate 500 g/ha, Preemergence; 0 to 100 scale) | Plant response rating, Spanishneedles (Spanishneedles; Rate 500 g/ha)
98: Plant response rating, Alexandergrass (Alexandergrass; Rate 500 g/ha)
